The values that follow are results of earlier work, collected in patent US6718687B2 (priority 2002, dated 2004).

The subject of this data set is mosquitoes.

Structures are written as SMILES.

`C=CC(O)CCCCC` (centres unmarked) [Octenol, 1-octen-3-oL]: where the note is “Octenol and CO2 versus CO2 alone”, the “results from traps baited with Octenol and CO2 compared with CO2 alone” value is given as “not significant”. Moreover, the “effectiveness as attractant for mosquitoes” value (Octenol at the release rate tested, unless CO2 was also used) is given as “not an effective attractant”.
